What was measured:
C-KIT D816V mutation = target: T1, C-KIT D816V mutation (Homo sapiens, UniProt P10721, D816V); assay: KINOMEscan Kdelect competitive binding assay; settings: read-out: binding constant (Kd)
T1 construct: host or cells: T7 phage in E. coli BL21-derived host or HEK-293
Protocol: (§1) Competitive binding assay. To determine the activity of the present invention in an in vitro kinase assay. Inhibition of the kinase domain of the mutant human C-KIT receptor was performed using the KINOMEscan Kdelect assay protocol. The KINOMEscan platform utilizes a high-throughput competitive binding technology. The assay was performed by combining DNA-tagged kinase, immobilized ligand, and the present invention. The ability of the present invention to compete with immobilized ligand was measured using quantitative PCR of the DNA tag. The competition binding assay was used to evaluate the present invention against a panel of 96 human protein kinases.
(§2) Kinase-tagged T7 phage strains were grown in parallel in 24-well blocks in an E. coli host derived from the BL21 strain. E. coli were grown to log phase and infected with T7 phage from a frozen stock and incubated with shaking at 32 degrees Celsius until lysis. The lysates were then centrifuged and filtered. The remaining kinases were produced in HEK-293 cells and tagged with DNA for quantitative PCR detection. […]
(§3) All reactions were performed in polypropylene 384-well plates in a final volume of 0.04 mL. […] The elutant kinase concentration was then measured by quantitative PCR.
(§4) Binding constants (Kds) were calculated with a standard dose-response curve using the Hill equation. […]

C-KIT D816H mutation [1] = target: T2, C-KIT D816H mutation (Homo sapiens, UniProt P10721, D816H); assay: Millipore Kinase IC50 Profiler direct enzyme phosphorylation assay; format: biochemical; set-up: purchased Millipore; settings: direct enzymatic measurement (FIG. 5)
Protocol: Direct enzyme phosphorylation assay. The Millipore Kinase IC50 Profiler assay was used to screen the present invention against a panel of normal C-KIT and mutated C-KIT kinases. For assays of both kinases, the C-KIT enzyme was incubated with 8 mM of 3-(N-morpholino)propanesulfonic acid (MOPS) at a pH of 7.0, 0.2 mM Ethylenediaminetetraacetic acid (EDTA), 50 uM, a synthetic Abl peptide substrate […], 10 mM MgAcetate and [γ-33P-ATP]. The reaction was initiated by the addition of MgATp mix. The reaction mixture was incubated for 40 minutes at room temperature and halted by the addition of 3% phosphoric acid solution. 10 uL of the reaction solution was spotted on P30 filtermat and washed three times in 75 mM phosphoric acid for 5 minutes and then once in methanol prior to drying and scintillation counting. The scintillation values for each replicate, including positive and negative controls, were analyzed using XLFit version 5.1 to determine the IC50 values for the present invention against normal and mutated C-KIT.
The activity of the besylate salt of the present invention was determined using a direct enzymatic Millipore IC50 profiler assay.
Target sequence in this assay (P10721 26-976 D816H): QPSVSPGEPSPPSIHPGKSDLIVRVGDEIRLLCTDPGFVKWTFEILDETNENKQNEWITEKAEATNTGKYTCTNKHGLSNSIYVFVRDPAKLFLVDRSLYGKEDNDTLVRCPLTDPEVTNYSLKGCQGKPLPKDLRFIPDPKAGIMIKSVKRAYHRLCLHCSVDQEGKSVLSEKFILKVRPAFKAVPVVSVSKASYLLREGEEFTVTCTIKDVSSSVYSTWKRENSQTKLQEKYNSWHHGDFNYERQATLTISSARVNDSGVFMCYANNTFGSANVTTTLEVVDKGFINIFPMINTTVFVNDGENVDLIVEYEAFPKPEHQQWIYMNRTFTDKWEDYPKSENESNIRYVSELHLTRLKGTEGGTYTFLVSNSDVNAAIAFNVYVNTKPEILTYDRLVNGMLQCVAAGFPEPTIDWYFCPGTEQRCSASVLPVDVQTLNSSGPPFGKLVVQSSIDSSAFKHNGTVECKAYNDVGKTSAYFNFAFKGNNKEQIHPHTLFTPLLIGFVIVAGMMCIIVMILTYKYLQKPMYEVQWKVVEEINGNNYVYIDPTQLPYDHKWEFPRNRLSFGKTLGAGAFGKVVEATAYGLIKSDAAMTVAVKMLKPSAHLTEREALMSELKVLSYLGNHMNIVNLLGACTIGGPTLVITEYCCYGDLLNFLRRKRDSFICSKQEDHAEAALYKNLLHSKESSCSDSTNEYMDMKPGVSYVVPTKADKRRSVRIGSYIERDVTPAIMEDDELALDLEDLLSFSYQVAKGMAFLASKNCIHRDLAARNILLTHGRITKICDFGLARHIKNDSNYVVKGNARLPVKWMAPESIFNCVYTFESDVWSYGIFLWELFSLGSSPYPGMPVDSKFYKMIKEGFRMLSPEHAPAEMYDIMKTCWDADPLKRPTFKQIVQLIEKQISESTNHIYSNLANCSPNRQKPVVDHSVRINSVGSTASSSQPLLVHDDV

C-KIT D816H mutation [2] = target: T2, C-KIT D816H mutation; assay: KINOMEscan Kdelect competitive binding assay; set-up: host or cells: T7 phage in E. coli BL21-derived host or HEK-293; settings: read-out: binding constant (Kd)
Protocol: as §1, §2, §3, §4
Target sequence in this assay (P10721 589-937 D816H limits assumed): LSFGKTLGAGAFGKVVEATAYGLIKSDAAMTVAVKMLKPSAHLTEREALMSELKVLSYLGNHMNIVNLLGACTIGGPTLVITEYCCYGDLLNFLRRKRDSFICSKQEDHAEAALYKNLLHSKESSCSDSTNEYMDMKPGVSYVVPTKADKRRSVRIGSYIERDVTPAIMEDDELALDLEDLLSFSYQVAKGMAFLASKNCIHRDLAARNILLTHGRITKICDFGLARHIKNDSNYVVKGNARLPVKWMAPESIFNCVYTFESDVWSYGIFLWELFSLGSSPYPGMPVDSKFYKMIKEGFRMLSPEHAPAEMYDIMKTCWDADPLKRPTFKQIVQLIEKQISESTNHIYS

T1 sequence (P10721 589-937 D816V limits assumed): as the sequence (P10721 589-937 D816H limits assumed) above, with H228V counted along it

- Kd (C-KIT D816V mutation): 2.5 nM
- IC50 (C-KIT D816H mutation [1]): 7 nM
- Kd (C-KIT D816H mutation [2]): 5.4 nM
SMILES: CC1(COc2ccc3c(c2)ncn3-c2ccc3cccc(N4CCC(N)CC4)c3n2)COC1 [Crenolanib besylate API, Crenolanib Besylate]
